The source of these data is patent publication EP0603030A2, “Antiviral antibiotic BU-4628V and preparation thereof” (Bristol-Myers Squibb Company, priority 1992, dated 1994).

For data set [1], the system named is human immunodeficiency virus. Kind of data set: Anti-HIV activity, XTT assay in CEM-SS cells (strain not stated). It counts as cell-based. Particulars: Human immunodeficiency virus 1, read-out: IC₅₀.
The subject of data set [2] is CEM-SS cells.
Text: (§2) The antiviral effect is expressed as the inhibitory concentration of a compound which reduces the number of viruses of the infected culture to 50% of that of the drug - untreated, control culture (IC₅₀). The cytotoxicity is expressed as the concentration of a compound which yields 50% of the number of viable cells of the untreated control cultures (IC₅₀).
The subject of data set [3] is CEM-SS cells. Briefly: Cytotoxicity in CEM-SS cells (XTT assay). It counts as cell-based. As to conditions: result in words.
Text: as §2
Data set [4] can be described thus: Cytotoxicity in CEM-SS cells (XTT assay). In kind it is cell-based. Particulars: human, concentration yielding 50% of viable cells of untreated control, read-out: cytotoxicity IC₅₀.
Text: as §2
The next data set concerns HIV-2 CBL-20. Kind of data set: Anti-HIV activity, XTT assay in CEM-SS cells. It counts as cell-based, human immunodeficiency virus. Particulars: HIV-2 CBL-20 strain, read-out: IC₅₀.
The test system of data set [5] is herpes simplex virus type 1 (HSV-1). Kind of data set: Anti-HSV activity, inhibition of virus-induced cytopathic effect in Vero cells. In kind it is cell-based. Particulars: HSV-1 KOS strain, 72 hours at 37°C, 50% inhibition of cytopathic effect. As for the experimental part: (§1) The in vitro antiviral activity of BU-4628V was assessed against the herpes simplex virus type 1 (HSV-1) using the KOS strain. The assay was done according to the reported protocol of C. McLaren et al. in Antiviral Research, 3, 223-234, (1986) with minor modification. Briefly, 50 µl of Eagle's MEM medium containing BU-4628V and then 200 µl of the Vero cell suspension (2 X 10⁴ cells/200 µl) were added to a well of a 96-well microtiter plate. To the well, 50µl of medium containing approximately 30 times of the 50% tissue culture infectious dose (50% TCID) of virus was added. In a parallel experiment, the same set of cells without virus infection was prepared, which was for the determination of cytotoxicity of the sample. After 72 hours incubation at 37°C, the inhibition degree of virus-induced cytopathic effect and cytotoxicity by the sample were determined, respectively. The ID₅₀ is expressed as the concentration of a compound showing 50% growth inhibition of the cytopathic effect and the TD₅₀ as the concentration of a compound showing 50% growth inhibition of the cells in the absence of virus. Acyclovir was used as the reference compound for anti-HSV activity in the assay.

The subject of a further data set is S. typhi 901. In kind it is cell-based. As to conditions: 901, 18 h, pH 7.
The next data set concerns HIV-1 RF. Kind of data set: Anti-HIV activity, XTT assay in CEM-SS cells. In kind it is cell-based, human immunodeficiency virus. As to conditions: HIV-1 RF strain, read-out: IC₅₀.
Data set [6] is described as follows: Cytotoxicity in Vero cells without virus infection. In kind it is cell-based. As to conditions: Vero cells in the absence of virus, 72 hours at 37°C, 50% growth inhibition, read-out: TD₅₀. On the procedure:
as §1

Another data set in a line: Solubility in solvents. In kind it is physicochemical. An excerpt:
The antiviral antibiotic BU-4628V was isolated as a white amorphous powder.

A further data set relates to HIV-1 IIIb. Kind of data set: Anti-HIV activity, XTT assay in CEM-SS cells. As to conditions: HIV-1 IIIb strain, read-out: IC₅₀. It counts as cell-based, human immunodeficiency virus.
For the next data set, the system named is Vero cell. Briefly: Cytotoxicity in Vero cells without virus infection. Particulars: Vero cells in the absence of virus, 72 hours at 37°C; 50% growth inhibition. In kind it is cell-based. On the procedure: as §1

Each structure is given as a SMILES string. Read-outs that look alike come from different tables or passages of the source. Positions of bridges follow the written chain, without caps; N, C: chain ends. Residues, ends and D or L forms follow the SMILES beside them.

Text for HIV-1 IIIb: as §2
Text for HIV-1 RF: as §2
Text for HIV-2 CBL-20: The antiviral effect is expressed as the inhibitory concentration of a compound which reduces the number of viruses of the infected culture to 50% of that of the drug - untreated, control culture (IC₅₀).

On to `O=c1[nH]cnc2c1ncn2[C@H]1CC[C@@H](CO)O1` [ddI, 2',3'-Dideoxyinosine], for which the IC50 in data set [1] lay in the range of 1000 to 2000 nM. For the same molecule, the cytotoxicity result in the data set on CEM-SS cells [2] is given as “very weak cytotoxicity”.

On to `CC[C@H](C)[C@@H]1NC(=O)CNC(=O)[C@H](CC(C)C)NC(=O)[C@@H]2CSSC[C@@H]3NC(=O)CNC(=O)[C@H](C)NC(=O)[C@H](Cc4ccccc4)NC(=O)[C@H](CC(=O)N2)NC(=O)[C@H](CC(N)=O)NC(=O)[C@H](CSSC[C@@H](C(=O)N[C@@H](Cc2ccccc2)C(=O)N[C@@H](Cc2c[nH]c4ccccc24)C(=O)O)NC(=O)[C@H](C(C)C)NC(=O)[C@H]([C@@H](C)CC)NC(=O)[C@H](C)NC(=O)[C@H](Cc2ccc(O)cc2)NC(=O)CNC3=O)NC(=O)[C@H](CO)NC(=O)CNC1=O` [BU-4628V] (CLGIGSCNDFAGCGYAIVCFW-OH; disulfide 1-13, 7-19; lactam N-9; C-terminus assumed), for which, in the data set with CEM-SS cells [3], the cytotoxicity result is “very weak cytotoxicity”. Further, in data set [4], the CC50 was 26000 to 46000 nM. Besides, the IC50 was 320 nM in the data set on HIV-2 CBL-20, 140 nM in the data set on HIV-1 RF and 920 nM in the data set with HIV-1 IIIb. The molecule also had an ID₅₀ in data set [5] of 27 µg/mL. For the same molecule, in the data set with S. typhi 901, the MIC was greater than 100 µg/mL. The CC50 at 72 h in [6] was greater than 100 µg/mL. The solubility result in “Solubility in solvents” (in alkaline water) is given as “slightly soluble”; in “Solubility in solvents” (in benzene), “insoluble”; in the data set “Solubility in solvents” (in chloroform), “insoluble”; in the data set “Solubility in solvents” (in dimethyl sulfoxide), “soluble”; in “Solubility in solvents” (in dimethylformamide), “soluble”; in the data set “Solubility in solvents” (in ethanol), “soluble”. Moreover, the solubility result in “Solubility in solvents” (in ethyl acetate) was “insoluble”; in “Solubility in solvents” (in methanol) it was “soluble”; in “Solubility in solvents” (in n-hexane), “insoluble”; in “Solubility in solvents” (in petroleum ether) it was “insoluble”; in the data set “Solubility in solvents” (in water) it was “insoluble”.

Take `Nc1nc2c(ncn2COCCO)c(=O)[nH]1` [Acyclovir]: the ID₅₀ in data set [5] came to 0.23 µg/mL. Further, the TD₅₀ with Vero cell was greater than 100 µg/mL.
